Assay results reported in patent US20190388437A1, “COMPOSITIONS AND METHODS FOR TREATING BONE AND JOINT INFECTIONS” (priority 2014, published 2019).
Values after ≈ are worked out from the molar mass of the structure shown. Values joined by “and” are separate entries in the source; they are usually repeats but may differ in a detail not shown here. Identical values can stand only once. Like-named read-outs stand apart in the source and are kept apart here.

What was measured:
[1] = tested on: S. aureus MRSA (Mec A genotype); test: Agar dilution MIC against resistant S. aureus; format: cell-based; details: Staphylococcus aureus
Source text: The in vitro activity of CEM-102 was compared with that of telithromycin, azithromycin, erythromycin, levofloxacin, linezolid, and doxycycline against a total of 145 resistant S. aureus by agar dilution procedures (CLSI, M7-A7, M100-S18). The tested strains included S. aureus MRSA (Mec A genotype; 100 isolates), macrolide-resistant (ermA, B, C genotype or MLSb-resistant; 25), and ciprofloxacin-resistant (gyrA and parC genotype; 20).

[2] = tested on: methicillin-resistant S. aureus (MRSA) strain USA 300; test: CLSI MIC against MRSA strain USA 300; format: cell-based; details: Staphylococcus aureus
Method: Pharmacodynamics of CEM-102 against Methicillin-Resistant Staphylococcus aureus Using In vitro Models. A hollow fiber model was used to evaluate CEM-102 resistance potential in methicillin-resistant S. aureus (MRSA) strain USA 300 (Network of Antimicrobial Resistance in Staphylococcus aureus (MRSA), Chantilly, Va.). USA 300 is a highly virulent strain of MRSA and is the most common community-associated MRSA isolate in the USA. MIC values were determined in accordance with Clinical and Laboratory Standards Institute (CLSI).

S. aureus [3] = test: MIC population distribution, 217 S. aureus Canadian isolates; format: cell-based; details: 217 Canadian isolates
[4] = tested on: coagulase-negative staphylococci [CoNS]; test: Reference broth microdilution susceptibility testing, Canadian isolates; format: cell-based; details: 15 isolates
Source text: (§1) To determine a contemporary susceptibility (S) spectrum pattern. 153 GP isolates (123 S. aureus, 15 coagulase-negative staphylococci [CoNS] and 15 S. pyogenes [SPYO]) were collected from 5 Canadian medical centers between 2001 and 2006.

S. aureus [5] = test: as above; format: cell-based
Source text: as §1

S. pyogenes [SPYO] = test: as above; format: cell-based; details: Streptococcus pyogenes; all 15 isolates
Source text: as §1

[6] = Single oral dose bioavailability study, fed/fasted crossover; format: in vivo, healthy subjects (human)
Method: Single oral dose bioavailability study of CEM-102 (sodium fusidate). […] This was a single-center, Phase 1, double-blind, randomized, 3 period, fed/fasted crossover bioequivalence study designed to evaluate the relative bioavailability and safety and tolerability of a single oral dose of CEM-102 500 mg compared to Fucidin® 500 mg in healthy subjects. Subjects were randomized in equal numbers to the 4 treatment sequences (Table 3).
Study Period 1, 2, and 3 (Days 1, 15, and 29): One dose of study drug 500 mg (2×250 mg) of CEM-102 or Fucidin® was given at 8:00 AM (˜30 minutes). On Day 1 of Study Periods 1 and 2 (Days 1 and 15), subjects fasted overnight for at least 10 hours prior to dosing. On Day 1 of Study Period 3 (Day 29), subjects were given a high fat caloric meal which was to be entirely consumed within 30 minutes prior to study drug administration.
Blood samples for assay of plasma concentrations were collected on Days 1, 15 and 29 at pre-dose and 0.5, 1, 1.5, 2, 2.5, 3, 3.5, 4, 6, 8, 12, 16, 24, 36, and 48 hours after the dose. Plasma concentrations were assayed at MicroConstants, Inc. in San Diego, Calif. using a validated liquid chromatography with dual tandem mass spectrometry (LC/MS/MS) method with a lower limit of quantitation (LLOQ) of 20.0 ng/mL

Compound: CC(=O)O[C@H]1C[C@@]2(C)[C@@H](C[C@@H](O)[C@H]3[C@@]4(C)CC[C@@H](O)[C@@H](C)[C@@H]4CC[C@@]32C)/C1=C(\CCC=C(C)C)C(=O)O [FA, fusidic acid]
- MIC90 [1]: 0.25 µg/mL (≈ 0.484 µM)
- MIC [2]: 0.25 µg/mL (≈ 0.484 µM)
- resistance rate (for CEM-102: isolates with MICs of ≥2.0 μg/mL) (S. aureus [3]): 6.5%
- MIC50 [4]: 0.12 µg/mL (≈ 0.232 µM)
- MIC90 [4]: 16 µg/mL (≈ 31 µM)
- % at ≤0.5 (S. aureus [5]; 2001-2002): 95.0%
- No. inhibited at MIC 0.06 μg/mL (S. aureus [5]; 2001-2002): 8
- No. inhibited at MIC […] (S. aureus [5]; 2001-2002): 29 and 1
- No. inhibited at MIC ≥2 μg/mL (S. aureus [5]; 2001-2002): 2
- R rate over time (S. aureus [5]; 2001-2006, breakpoint ≤0.5 μg/ml (S) and ≤2 μg/ml (R)): 5.0-12.2%
- % at ≤0.5 (S. aureus [5]; 2003-2004): 92.9%
- MIC50 (S. aureus [5]; 2003-2004): 0.12 µg/mL (≈ 0.232 µM)
- No. inhibited at MIC 0.06 μg/mL (S. aureus [5]; 2003-2004): 6
- No. inhibited at MIC […] (S. aureus [5]; 2003-2004): 33
- No. inhibited at MIC ≥2 μg/mL (S. aureus [5]; 2003-2004): 3
- % at ≤0.5 (S. aureus [5]; 2005-2006): 87.8%
- No. inhibited at MIC 0.06 μg/mL (S. aureus [5]; 2005-2006): 2
- No. inhibited at MIC […] (S. aureus [5]; 2005-2006): 32 and 2
- No. inhibited at MIC ≥2 μg/mL (S. aureus [5]; 2005-2006): 5
- MIC90 (S. aureus [5]; Staphylococcus aureus, 2003-2004): 0.12 µg/mL (≈ 0.232 µM)
- MIC90 (S. aureus [5]; Staphylococcus aureus, 2005-2006): ≥ 2 µg/mL
- MIC90 (S. aureus [5]; Staphylococcus aureus, overall S. aureus population): 0.25 µg/mL (≈ 0.484 µM)
- MIC90 (S. aureus [5]; Staphylococcus aureus, 2001-2002): 0.12 µg/mL (≈ 0.232 µM)
- MIC50 (S. aureus [5]; Staphylococcus aureus, 2001-2002, read-out: MIC50): 0.12 µg/mL (≈ 0.232 µM)
- R rate (S. aureus [5]; overall S. aureus population): 8.1%
- MIC (S. pyogenes [SPYO]): 4 to 8 µg/mL (≈ 7.74 to 15.5 µM)
- total exposure (AUC) ([6]; 500 mg, fasting): ~318 µg·h/mL
- total exposure (AUC) ([6]; 500 mg, fed): approximately 285 μg·h/mL
- tmax, median ([6]; human, in vivo, po): ~3.00 h
- t1/2, arithmetic mean ± SD ([6]; human, in vivo, po, 500 mg): ~11.8 h
- tmax, median ([6]; single oral 500 mg (2×250 mg), fasting): 3.00 h
- tmax, median ([6]; single oral 500 mg (2×250 mg), fed): 3.50 h
